Data taken from patent US20040259948A1, “Reciprocal regulation of inflammation and lipid metabolism by liver X receptors” (priority 2003, published 2004).

Key:
[1] = test system: Thioglycolate-elicited peritoneal macrophages; assay: DNA microarray analysis of LPS-activated macrophages; type: cell-based, mice; conditions: 2 μM 18 h, then 100 ng/ml LPS 6 h
Experimental: DNA microarrays were used to further examine the effect of LXR activation on LPS-induced gene transcription. […] Cells were harvested 6 hours after LPS stimulation and total RNA from these samples was used to probe Affymetrix U74Av2 arrays. The array data were analyzed using GeneSpring software to identify genes regulated by the ligand in the cells. […] Genes involved in inflammation or lipid metabolism were selected based on ligand-dependent changes in expression in the cells. […] DNA microarray analysis. […] Total RNA was reverse transcribed using a T7-(dT)24 primer (Genset Corp.). Biotin-labeled cRNA was generated using the Bioarray High Yield Transcript Labeling Kit (ENZO). Samples were hybridized to single Affymetrix Murine U74Av2 microarrays and visualized by the PAN Facility at Stanford University. Data was analyzed using GeneSpring and GeneChip Analysis Suite software (Affymetrix). Only those results determined by the software to represent significant expression differences in the presence or absence of ligand are presented. Positive results were defined as ligand-dependent changes in expression in wild-type cells.

[2] = test system: Thioglycolate-elicited peritoneal macrophages; assay: Macrophage response to E. coli infection: iNOS mRNA and NO production; type: cell-based, murine; conditions: 18 h, pretreated with 1 μM ligand
Experimental: Thioglycolate-elicited peritoneal macrophages were infected in vitro with Escherichia coli. After 18 hours, expression of inducible nitric oxide synthase (iNOS) mRNA and nitric oxide (NO) production were assessed. […] Cells were then infected with E. coli (A, B) or treated with 100 ng/ml LPS(C, D, E) as indicated. After 18 h, NO production was determined using a colorimetric assay (A, D), or mRNA levels were determined using real-time quantitative PCR assays (B, C, E).
Thioglycolate-elicited peritoneal macrophages were cultured in RPMI containing 10% fetal bovine serum (FBS). […] For ligand treatments, cells were in cultured medium supplemented with 5% lipoprotein-deficient serum (LPDS) and ligands for 18 h before stimulation. […] NO production was determined spectrophotometrically (Castrillo, A. et al. 2000 Mol Cell Biol 20:1692-1698).
Total RNA was extracted using Trizol reagent (Life Technologies, Inc.). […] Real-time quantitative PCR (TaqMan) analysis was performed using an Applied Biosystems 7700 sequence detector.

## O=C(O)Cc1cccc(OCCCN(Cc2cccc(C(F)(F)F)c2Cl)CC(c2ccccc2)c2ccccc2)c1 [GW3965]
[1]
  expression of cluster of genes of macrophage innate immune response (iNOS, COX-2, IL-6, IL-1β, G-CSF, MCP-1, MCP-3, MIP-1β, IP-10, MMP-9): inhibited
  expression of genes involved in lipid metabolism (incl. Abca1): most highly induced
  expression of genes involved in other cellular processes: not significantly altered
[1]; apoptosis gene
  Change: Apoptosis inhibitor 2: 1.10
  Change: Apoptosis inhibitor 3: 0.83
  Change: Apoptosis signal-regulating kinase 1: 0.99
  Change: Apoptosis-inducing factor AIF (Aif): 0.83
  Change: Bc1-10 protein: 1.13
  Change: Bc12-associated X protein: 1.15
  Change: Bc12-like: 0.80
  Change: Bc12 homologous antagonist/killer: 0.94
  Change: Caspase 2: 1.10
  Change: Caspase 3, apoptosis related cysteine protease: 1.40
  Change: Caspase 7: 0.94
  Change: Caspase 9: 0.79
  Change: Caspase 11: 0.92
  Change: E1B 19 K/Bc1-2-binding protein homolog (Nip3): 1.14
[1]; cell-cycle gene
  Change: Avian reticuloendotheliosis viral (v-rel) oncogene related B: 1.21
  Change: Cell division cycle 42: 1.06
  Change: Cyclin 1: 1.05
  Change: Cyclin B2: 0.68
  Change: Cyclin F: 0.72
  Change: Cyclin G2: 0.83
  Change: Cyclin dependent kinase inhibitor 2B (Cdkn2b): 1.15
  Change: Cyclin-dependent kinase 5: 1.00
  Change: Cyclin-dependent kinase inhibitor 1A (P21): 0.85
  Change: Cyclin-dependent kinase inhibitor 1C (P57): 1.28
  Change: Early growth response 2: 0.96
  Change: Growth arrest specific 1: 0.91
  Change: Growth arrest specific 2: 0.92
  Change: Growth arrest specific 7: 1.22
  Change: Guanine Nucleotide Regulatory Protein: 1.12
  Change: Met proto-oncogene: 1.12
  Change: Proliferating cell nuclear antigen: 1.13
[2]; colorimetric assay
  iNOS activity (NO / nitrite production): reduced
[2]; real-time quantitative PCR
  iNOS mRNA: significantly reduced
